# Assay results from patent publication US8980311B2, “Liposome-mediated ligation” (University of Georgia Research Foundation, Inc., priority 2006, dated 2015).
# Where a SMILES comes first, the peptide text is derived from it. The star is where a group is joined. Propyl(2R-PamO,3-PamO) = CCCCCCCCCCCCCCCC(=O)OC[C@H](C*)OC(=O)CCCCCCCCCCCCCCC; Palmitoyl = CCCCCCCCCCCCCCCC(=O)*; SBn = c1ccc(CS*)cc1
# Conditions: phosphate buffer containing 6 M guanidinium-hydrochloride
compound,measurement,value
"CCCCCCCCCCCCCCCC(=O)N[C@@H](CSC[C@@H](COC(=O)CCCCCCCCCCCCCCC)OC(=O)CCCCCCCCCCCCCCC)C(=O)N[C@@H](CO)C(=O)N[C@@H](CCCCN)C(=O)N[C@@H](CCCCN)C(=O)N[C@@H](CCCCN)C(=O)N[C@@H](CCCCN)C(=O)NCC(=O)SCc1ccccc1 [Compound 6] (Palmitoyl-C(Propyl(2R-PamO,3-PamO))SKKKKG-SBn)",solubility,poor solubility
